US5436271A, “N^6 -(hydrazinoiminomethyl)lysine and method of inhibiting nitric oxide formation in body” (Cornell Research Foundation, Inc., priority 1993, dated 1995)
Where two headings read alike, the source gives them in different places.

Key:
[1] = design: species or system Swiss-Webster mice; conditions: mouse, in vivo, sc
Description: To test the long-term toxicity of N^6 -(hydrazinoiminomethyl)-L-lysine,0.209 ml of a 200 mM solution of the hydrochloride salt of the drug (48 mg/ml) was loaded into each of three Alzet Osmotic Pumps (Model 2001), and the pumps were implanted subcutaneously on the backs of three individual Swiss-Webster mice (wts. 30.7, 34.8 and 33.4 gms) under pentobarbital anesthesia. Each pump delivered the solution of drug at a rate of […] for 1 week.

[2] = biological target: T1, constitutive isoform of nitric oxide synthase (Rattus norvegicus, UniProt Q62600); test: Inhibition of acetylcholine relaxation of phenylephrine-contracted rat aortic rings (Example VI)
T1 construct: from tissue; host or cells: isolated rat aortic rings (2-3 mm)
T1 sequence (Q62600 2-1202 limits assumed): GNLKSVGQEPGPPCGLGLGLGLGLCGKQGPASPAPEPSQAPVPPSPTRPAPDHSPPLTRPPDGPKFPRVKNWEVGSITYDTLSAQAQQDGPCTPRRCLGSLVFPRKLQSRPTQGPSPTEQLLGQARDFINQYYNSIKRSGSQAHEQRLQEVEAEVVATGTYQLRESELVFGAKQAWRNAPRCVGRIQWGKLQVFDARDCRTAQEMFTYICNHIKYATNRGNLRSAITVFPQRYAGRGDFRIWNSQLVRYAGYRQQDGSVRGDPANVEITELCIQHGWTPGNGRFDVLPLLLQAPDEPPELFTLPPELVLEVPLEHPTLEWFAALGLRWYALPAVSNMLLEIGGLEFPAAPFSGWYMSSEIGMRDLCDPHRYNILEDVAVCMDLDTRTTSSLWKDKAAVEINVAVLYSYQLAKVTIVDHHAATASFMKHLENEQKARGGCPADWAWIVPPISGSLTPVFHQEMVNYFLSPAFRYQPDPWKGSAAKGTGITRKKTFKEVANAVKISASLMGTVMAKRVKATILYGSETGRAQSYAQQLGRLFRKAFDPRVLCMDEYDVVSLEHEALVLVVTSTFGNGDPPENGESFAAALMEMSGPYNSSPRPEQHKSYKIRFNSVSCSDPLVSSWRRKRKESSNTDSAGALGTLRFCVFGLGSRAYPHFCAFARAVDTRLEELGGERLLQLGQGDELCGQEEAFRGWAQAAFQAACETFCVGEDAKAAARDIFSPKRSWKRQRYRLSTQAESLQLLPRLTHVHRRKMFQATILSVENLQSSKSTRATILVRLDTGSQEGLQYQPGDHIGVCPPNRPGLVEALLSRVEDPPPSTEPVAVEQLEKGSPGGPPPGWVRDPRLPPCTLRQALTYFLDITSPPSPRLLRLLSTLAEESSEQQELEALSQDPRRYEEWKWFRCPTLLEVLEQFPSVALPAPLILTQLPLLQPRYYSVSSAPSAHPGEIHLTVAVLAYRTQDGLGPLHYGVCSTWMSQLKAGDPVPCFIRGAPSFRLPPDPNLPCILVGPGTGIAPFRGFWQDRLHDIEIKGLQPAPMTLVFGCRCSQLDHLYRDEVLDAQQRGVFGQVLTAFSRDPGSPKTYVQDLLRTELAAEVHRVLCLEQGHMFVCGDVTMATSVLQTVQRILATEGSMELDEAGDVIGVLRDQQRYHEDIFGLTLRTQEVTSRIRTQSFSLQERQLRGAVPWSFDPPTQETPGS
Description: In vitro studies with rat aortic rings were carried out to test the effect of N^6 -(hydrazinoiminomethyl)-L-lysine relative to other known inhibitors of the constitutive isoform of nitric oxide synthase. Aortic rings (2-3 mm) were isolated, suspended under a resting tension of 2.00 gm in 5 ml glass chambers containing Krebs-Henseleit solution gassed with 95% 02 and 5% CO2 at 37° C. as described previously for vascular rings from guinea pigs (O.A. Fasehun et al, (1990) J. Pharmacol. Exp. Ther. 255, 1348-1353). The aortic rings were then contracted by addition of 0.03 μM phenylephrine to the bathing solution, and the tension of the rings was measured. Acetylcholine, an agonist that stimulates the formation of nitric oxide by constitutive nitric oxide synthase in the vascular endothelium, was next added to a final concentration of 1 μM. The nitric oxide formed in response to acetylcholine causes the vascular smooth muscle of the aortic rings to relax, and the decrease in tension is measured. Inhibitors of nitric oxide synthase decrease the extent to which acetylcholine causes relaxation of the phenylephrine-contracted aortic rings. In the study, rings were contracted with phenylephrine, relaxed with acetylcholine, and then increasing doses of inhibitor were added to the bathing solution to overcome the effect of acetylcholine. The dose of inhibitor is denoted on the X-axis.

[3] = biological target: T2, cytokine-induced nitric oxide synthase isozyme (Mus musculus, UniProt P29477); test: Nitrite formation by cytokine-induced cultured mouse brain endothelial cells (Example V); assay type: cell-based
T2 construct: endogenous in cells; host or cells: cultured mouse brain endothelial cells induced with gamma-interferon and tumor necrosis factor
Description: In vitro studies with cultured endothelial cells were carried out to test the efficacy of N^6 -(hydrazinoiminomethyl)-L-lysine as an inhibitor of the cytokine-induced nitric oxide synthase isozyme relative to established inhibitors. Cultured mouse brain endothelial cells were grown for 18 hrs. in the presence of 1000 units/ml of gamma-interferon and 5000 units/ml of tumor necrosis factor, conditions shown previously to cause enzyme induction (R. Kilbourn and P. Belloni (1990) in "Nitric Oxide from L-Arginine: A Bioregulatory System" (S. Moncada and E. A. Higgs, eds.) pp. 61-67, Elsevier Science Publishers, Amsterdam). For control cells the culture media contained 50% Dulbecco's Modified Eagle's Medium, 45% Ham's F12 Medium with 5% fetal calf serum. […] Nitric oxide formation was monitored by following the increase in the concentration of nitrite in the culture medium. Nitric oxide spontaneously oxidizes to nitrite under the incubator conditions.

[4] = Toxicity in awake dog, i.v. bolus plus infusion (Example II); assay type: in vivo
Description: To test the toxicity of N^6 -(hydrazinoiminomethyl)-L-lysine, a 30 kg awake dog was administered the hydrochloride salt of the drug at a dose of 20 mg/kg body weight as a single intravenous (i.v.) bolus. […] After 30 min., an additional dose of 20 mg/kg was given and an i.v. infusion of drug at a rate of 10 mg/kg body weight per hour was started. The infusion was continued for 5 hours. […] The spasms ended within 24 hours (48 hours after the experiment started), and the dog appeared normal and well in all respects.

nitric oxide synthase = test: Efficacy on arterial blood pressure in endotoxin-treated anesthetized dog (Example IV); assay type: in vivo
Description: To test the efficacy of N^6 -(hydrazinoiminomethyl)-L-lysine, a 28 kg fasted dog was anesthetized with pentobarbital (25 mg/kg, i.v.), orotracheally intubated to allow ventilation with a Harvard pump, and instrumented to allow arterial blood pressure to be monitored via a central catheter. After a constant normal blood pressure had been observed for about 90 min., a solution containing 2 mg/kg body weight of endotoxin (E. coli lipopolysaccharide obtained from Sigma Chemical Co.) was given as an intravenous bolus injection. […] When the mean arterial blood pressure had declined to about 70 mm Hg, a bolus intravenous injection of 20 mg/kg of N^6 -(hydrazinoiminomethyl)-L-lysine monohydrochloride (denote HAA) was given. […] At that time, the dog was given a bolus intravenous injection of 400 mg/kg of L-arginine (denoted L-ARG), the substrate of nitric oxide synthase and a specific antagonist of nitric oxide synthase inhibitors competing for the L-arginine binding site.

[5] = system: inducible isoform of nitric oxide synthase; conditions: cited from earlier work
[6] = rat aortic rings, 0.03 μM phenylephrine, 1 μM acetylcholine, read-out: concentration needed to overcome 50% of the relaxation caused by acetylcholine (ED50)
[7] = ratio of ED 50% approx., inducible isoform

With NN=C(N)NCCCC[C@H](N)C(=O)O [HAA, N^6 -(hydrazinoiminomethyl)-L-lysine] the survival [1] was > 4 weeks, the IC50 [2, 6] was ~10.3 µM and the IC50 ([3]; mouse brain endothelial cells, 18 hrs with gamma-interferon 1000 units/ml and tumor necrosis factor 5000 units/ml, read-out: dose required for approximately 50% inhibition (ED 50% approx.) of nitrite formation) was ~15.6 µM. The “potency relative to NAA” value [3, 7] was “approximately 4 times”, the “potency relative to NMMA” value [3, 7] was “approximately 8 times” and the “late signs of toxicity” value ([4]; dog, in vivo) was “periodic isolated myoclonic muscle spasms”. The “time until muscle spasms ended” value ([4]; dog, in vivo) was ≤ 24 h, the signs of toxicity ([4]; dog, in vivo, iv, 20 mg/kg) was “no signs of toxicity” and the “increase of blood pressure” value (nitric oxide synthase; endotoxin 2 mg/kg dog, mean arterial pressure about 70 mm Hg, 20 mg/kg i.v. bolus, within a few minutes) was “about 30 mm Hg”. The “time blood pressure remained in physiologically acceptable range” value (nitric oxide synthase; endotoxin dog, after 20 mg/kg i.v. bolus) was “about 45 min”.

For N=C(NCCC[C@H](N)C(=O)O)N[N+](=O)[O-] [NNA, N^G -nitro-L-arginine], the IC50 [2, 6] is listed as ~1.5 µM and the “rank as inhibitor of the inducible isoform among NNA, NAA, NMMA, HAA” value [5] is listed as “least effective inhibitor of the inducible isoform”.

In the case of N=C(N)NCCC[C@H](N)C(=O)O [L-ARG, L-arginine, reference compound], the “blood pressure after reversal by substrate” value (nitric oxide synthase; endotoxin dog treated with HAA, then 400 mg/kg i.v. bolus) is reported as “dropped precipitously to a level characteristic of septic (endotoxic) shock”.

With NN=C(N)NCCCCC(N)C(=O)O (racemic) [N^6 -(hydrazinoiminomethyl)-D,L-lysine, N^6 -(Hydrazinoiminomethyl)-D,L-lysine] the “inhibition of nitrite formation by induced endothelial cells compared with L-form” value ([3]; as Example V, twice the concentration of the L-form) was “substantially equal results” and the “blood pressure increase compared with L-form” value (nitric oxide synthase; as Example IV, twice the dosage of the L-form) was “substantially equal results”.

In the case of N/N=C(\N)NCCC[C@H](N)C(=O)O [NAA, N^G -amino-L-arginine, reference compound], the IC50 [2] is reported as ~4.2 µM, the IC50 [3] is reported as ~62.5 µM and the “toxicity at the same dose under similar circumstances” value ([4]; awake dog, same dose as N6-(hydrazinoiminomethyl)-L-lysine) is reported as “major seizures”.

Work on CNC(=N)NCCC[C@H](N)C(=O)O [NMMA, N^G -methyl-L-arginine] yielded an IC50 [2, 6] of ~10.2 µM.
